{
  "source": "patent US20240150322A1",
  "about": "“CDK9 Inhibitors” (Biolexis Therapeutics, Inc., priority 2022, published 2024)",
  "key": {"CDK2/cyclinA [1]": {"biological_target": "T1, CDK2/cyclinA (Homo sapiens, UniProt P24941)", "assay": "CDK family kinase profiling, radioisotope-based assay (33P)", "assay_type": "biochemical", "parameters": "purchased Reaction Biology", "settings": "read-out: 10-dose IC50", "procedure": "(§1) CDKs family kinases profiling assays were performed with DiscoveRx Matrix of Kds KINOMEscan (KdELECT) and Reaction Biology using miniaturized radioisotope-based assay platform (^33P). IC50 value estimated based on the best curve fitting available."}, "CDK3/cyclinE [2]": {"biological_target": "T2, CDK3/cyclinE (Homo sapiens, UniProt Q00526)", "assay": "CDK family kinase profiling, radioisotope-based assay (33P)", "assay_type": "biochemical", "parameters": "purchased Reaction Biology", "settings": "read-out: 10-dose IC50", "procedure": "as §1"}, "[3]": {"tested_on": "LASCPC-01 induced neuroendocrine prostate cancer (NEPC) CDX", "assay": "In vivo tumor efficacy study 2, LASCPC-01 NEPC CDX", "parameters": "species or system Nu/Nu (Balb/c background) mice", "procedure": "Change in animal weight during a study is an additional indicator of tolerability. All animal weights are recorded. Tumor volumes were measured by digital caliper and volume was calculated using the formula [Width^2×Length]/2. All tumor volume measurements are recorded. […] Dose dependent tumor growth inhibition (TGI) was evident by observation.\n50 and 80 mg/kg groups had mice drop from study starting on day 5."}, "[4]": {"tested_on": "C4-2 human neuroendocrine prostate cancer xenograft", "assay": "In vivo tumor efficacy study 3, C4-2 xenograft"}, "[5]": {"tested_on": "RWPE-1 Normal Prostate Cells", "assay": "LDH-Glo cytotoxicity assay in normal prostate cells", "assay_type": "cell-based", "settings": "Homo sapiens, 72 hours", "procedure": "Multiplexing the LDH-Glo Cytotoxicity Assay and CellTiter-Glo 2D Cell Viability Assay. […] Change in toxicity was measured using the LDH-Glo Cytotoxicity Assay by combining 50 μL diluted samples with 50 μL LDH Detection Reagent and recording luminescence after 1 hour incubation. After samples were removed for LDH measurement, an equal volume of CellTiter Glo 2D Reagent was added to the remaining cell suspension and luminescence was recorded after 30-minute incubation period."}, "C4-2 [6]": {"tested_on": "C4-2", "assay": "Annexin V/7-AAD apoptosis assay", "assay_type": "cell-based", "settings": "C4-2, treated for 72 hours"}, "CDK9": {"biological_target": "CDK9 (Homo sapiens, UniProt P50750)", "sequence (P50750 whole entry)": "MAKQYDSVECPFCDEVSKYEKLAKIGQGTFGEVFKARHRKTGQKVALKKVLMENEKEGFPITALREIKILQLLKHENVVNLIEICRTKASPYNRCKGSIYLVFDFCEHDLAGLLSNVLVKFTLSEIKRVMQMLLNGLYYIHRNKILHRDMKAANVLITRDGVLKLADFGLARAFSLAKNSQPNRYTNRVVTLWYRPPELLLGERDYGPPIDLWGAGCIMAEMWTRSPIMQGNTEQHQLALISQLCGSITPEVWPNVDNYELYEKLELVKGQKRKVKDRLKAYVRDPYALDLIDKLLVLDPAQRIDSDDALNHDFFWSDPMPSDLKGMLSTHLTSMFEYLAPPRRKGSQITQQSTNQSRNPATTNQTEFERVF", "assay": "DiscoveRx KINOMEscan (KdELECT, scanMAX panel)", "assay_type": "binding", "procedure": "as §1"}, "PCTK1": {"biological_target": "PCTK1 (Homo sapiens, UniProt Q00536)", "sequence (Q00536 whole entry)": "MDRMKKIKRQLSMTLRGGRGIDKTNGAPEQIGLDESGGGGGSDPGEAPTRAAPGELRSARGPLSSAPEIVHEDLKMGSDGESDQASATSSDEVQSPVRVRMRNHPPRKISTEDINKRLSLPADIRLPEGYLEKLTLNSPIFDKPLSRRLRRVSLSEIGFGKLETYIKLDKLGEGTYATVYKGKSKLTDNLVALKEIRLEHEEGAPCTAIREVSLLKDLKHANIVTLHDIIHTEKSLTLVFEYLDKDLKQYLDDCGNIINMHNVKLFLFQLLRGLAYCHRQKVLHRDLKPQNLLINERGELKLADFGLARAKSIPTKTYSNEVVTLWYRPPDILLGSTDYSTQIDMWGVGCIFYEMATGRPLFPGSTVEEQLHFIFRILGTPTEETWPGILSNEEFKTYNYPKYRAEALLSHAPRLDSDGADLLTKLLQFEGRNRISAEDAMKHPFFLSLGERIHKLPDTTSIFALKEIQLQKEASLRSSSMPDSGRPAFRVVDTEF", "assay": "scanMAX panel and Kd follow-up", "assay_type": "binding"}, "C4-2 [7]": {"tested_on": "C4-2", "assay": "2D CellTiter-Glo cell viability assay", "assay_type": "cell-based, human", "procedure": "(§2) CellTiter-Glo® 2.0 Luminescent cell viability assay reagent was purchased from Promega and 22Rv1, LASCPC-01, C4-2, C4-2B and NCI-H660, DU-145, PC-3 and LNCap cell lines were obtained from ATCC and a clinical core facility at Huntsman Cancer Institute. […] The results of cell viability were obtained and IC50 values were calculated (see Table 5, below) showing sub-micromolar cell killing of these prostate cancer cells."}, "[8]": {"assay": "Pharmacokinetic study in male Beagle dogs", "assay_type": "in vivo", "settings": "dog, plasma; for Tmax: read-out: Tmax (hours), median (min-max); for Vd: male, Beagle, iv, 1 mg/kg", "procedure": "Last time of mean concentrations was 24 hours following intravenous bolus injection."}, "22Rv1": {"tested_on": "22Rv1", "assay": "Annexin V/7-AAD apoptosis assay", "assay_type": "cell-based"}, "TAOK1": {"biological_target": "TAOK1 (Homo sapiens, UniProt Q7L7X3)", "sequence (Q7L7X3 whole entry)": "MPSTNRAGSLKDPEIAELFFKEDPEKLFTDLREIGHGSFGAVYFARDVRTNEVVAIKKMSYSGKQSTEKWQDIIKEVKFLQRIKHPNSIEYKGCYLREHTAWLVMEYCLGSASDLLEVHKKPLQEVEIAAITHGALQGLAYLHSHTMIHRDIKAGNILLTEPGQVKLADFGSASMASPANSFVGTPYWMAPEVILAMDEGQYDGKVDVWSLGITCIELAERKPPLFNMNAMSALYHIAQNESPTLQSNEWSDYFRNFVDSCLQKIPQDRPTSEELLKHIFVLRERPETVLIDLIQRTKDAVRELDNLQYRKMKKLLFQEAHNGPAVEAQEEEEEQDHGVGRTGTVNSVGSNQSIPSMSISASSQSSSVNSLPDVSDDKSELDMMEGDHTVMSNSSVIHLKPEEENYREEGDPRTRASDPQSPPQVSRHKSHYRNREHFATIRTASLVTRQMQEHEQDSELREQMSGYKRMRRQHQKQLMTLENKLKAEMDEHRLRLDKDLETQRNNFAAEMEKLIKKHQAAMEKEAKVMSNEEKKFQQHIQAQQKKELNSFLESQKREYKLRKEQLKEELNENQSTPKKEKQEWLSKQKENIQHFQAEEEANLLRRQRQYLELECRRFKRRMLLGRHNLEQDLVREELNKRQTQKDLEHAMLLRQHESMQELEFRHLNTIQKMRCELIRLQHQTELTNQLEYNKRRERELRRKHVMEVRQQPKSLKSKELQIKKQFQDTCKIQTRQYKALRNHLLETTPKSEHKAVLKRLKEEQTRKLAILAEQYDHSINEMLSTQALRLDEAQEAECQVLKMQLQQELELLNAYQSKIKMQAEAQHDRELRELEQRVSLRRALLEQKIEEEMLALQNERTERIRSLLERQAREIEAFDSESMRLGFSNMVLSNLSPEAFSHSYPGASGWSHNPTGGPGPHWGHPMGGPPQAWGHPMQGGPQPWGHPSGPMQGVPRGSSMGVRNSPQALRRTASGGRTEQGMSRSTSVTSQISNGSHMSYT", "assay": "scanMAX panel and Kd follow-up", "assay_type": "binding"}, "CDK4/cyclinD": {"biological_target": "CDK4/cyclinD (Homo sapiens, UniProt P11802)", "sequence (P11802 whole entry)": "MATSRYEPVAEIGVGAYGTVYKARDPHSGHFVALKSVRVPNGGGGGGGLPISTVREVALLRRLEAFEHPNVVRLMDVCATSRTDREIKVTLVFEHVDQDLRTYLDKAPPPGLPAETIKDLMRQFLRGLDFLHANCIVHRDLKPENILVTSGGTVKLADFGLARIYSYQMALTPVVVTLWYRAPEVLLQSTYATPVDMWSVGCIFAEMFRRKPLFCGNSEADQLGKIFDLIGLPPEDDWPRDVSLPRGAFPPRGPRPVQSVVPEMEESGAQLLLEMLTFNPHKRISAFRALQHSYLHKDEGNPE", "sequence (P24385 whole entry partner)": "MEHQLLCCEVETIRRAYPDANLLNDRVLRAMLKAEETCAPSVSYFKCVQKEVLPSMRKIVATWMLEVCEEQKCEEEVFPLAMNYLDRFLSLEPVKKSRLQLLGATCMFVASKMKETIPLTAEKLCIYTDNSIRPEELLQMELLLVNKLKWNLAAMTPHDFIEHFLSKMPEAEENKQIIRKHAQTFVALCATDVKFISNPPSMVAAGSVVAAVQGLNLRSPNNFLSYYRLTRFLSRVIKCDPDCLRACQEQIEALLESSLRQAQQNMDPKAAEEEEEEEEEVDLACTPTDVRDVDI", "assay": "DiscoveRx KINOMEscan Kd (KdELECT)", "assay_type": "binding", "procedure": "as §1"}, "CDK2/cyclinA [9]": {"biological_target": "T1, CDK2/cyclinA", "assay": "DiscoveRx KINOMEscan Kd (KdELECT)", "assay_type": "binding", "procedure": "as §1"}, "CDK3/cyclinE [10]": {"biological_target": "T2, CDK3/cyclinE", "assay": "DiscoveRx KINOMEscan Kd (KdELECT)", "assay_type": "binding", "procedure": "as §1"}, "ERK8": {"biological_target": "ERK8 (Homo sapiens, UniProt Q8TD08)", "sequence (Q8TD08 whole entry)": "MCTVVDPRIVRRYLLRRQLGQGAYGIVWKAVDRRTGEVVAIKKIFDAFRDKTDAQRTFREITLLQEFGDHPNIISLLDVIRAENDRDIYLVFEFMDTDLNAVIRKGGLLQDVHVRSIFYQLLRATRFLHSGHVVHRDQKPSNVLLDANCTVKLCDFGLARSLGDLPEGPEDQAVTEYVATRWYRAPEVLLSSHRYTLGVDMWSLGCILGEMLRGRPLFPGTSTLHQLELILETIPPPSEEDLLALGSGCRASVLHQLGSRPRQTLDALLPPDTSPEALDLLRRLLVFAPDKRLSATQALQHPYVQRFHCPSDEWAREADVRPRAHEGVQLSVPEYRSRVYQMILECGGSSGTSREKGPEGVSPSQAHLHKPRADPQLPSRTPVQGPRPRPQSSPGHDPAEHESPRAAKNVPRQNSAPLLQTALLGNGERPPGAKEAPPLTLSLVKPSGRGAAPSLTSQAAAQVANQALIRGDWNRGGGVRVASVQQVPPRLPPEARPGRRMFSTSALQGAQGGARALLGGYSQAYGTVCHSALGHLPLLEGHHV", "assay": "scanMAX panel and Kd follow-up", "assay_type": "binding"}, "C4-2B": {"tested_on": "C4-2B", "assay": "2D CellTiter-Glo cell viability assay", "assay_type": "cell-based", "procedure": "as §2"}, "CDK9/CycT1": {"biological_target": "T3, CDK9/CycT1 (Homo sapiens, UniProt P50750)", "T3 construct": "purchased SignalChem", "T3 sequence (P50750 whole entry)": "as the sequence (P50750 whole entry) above", "T3 sequence (O60563 whole entry partner)": "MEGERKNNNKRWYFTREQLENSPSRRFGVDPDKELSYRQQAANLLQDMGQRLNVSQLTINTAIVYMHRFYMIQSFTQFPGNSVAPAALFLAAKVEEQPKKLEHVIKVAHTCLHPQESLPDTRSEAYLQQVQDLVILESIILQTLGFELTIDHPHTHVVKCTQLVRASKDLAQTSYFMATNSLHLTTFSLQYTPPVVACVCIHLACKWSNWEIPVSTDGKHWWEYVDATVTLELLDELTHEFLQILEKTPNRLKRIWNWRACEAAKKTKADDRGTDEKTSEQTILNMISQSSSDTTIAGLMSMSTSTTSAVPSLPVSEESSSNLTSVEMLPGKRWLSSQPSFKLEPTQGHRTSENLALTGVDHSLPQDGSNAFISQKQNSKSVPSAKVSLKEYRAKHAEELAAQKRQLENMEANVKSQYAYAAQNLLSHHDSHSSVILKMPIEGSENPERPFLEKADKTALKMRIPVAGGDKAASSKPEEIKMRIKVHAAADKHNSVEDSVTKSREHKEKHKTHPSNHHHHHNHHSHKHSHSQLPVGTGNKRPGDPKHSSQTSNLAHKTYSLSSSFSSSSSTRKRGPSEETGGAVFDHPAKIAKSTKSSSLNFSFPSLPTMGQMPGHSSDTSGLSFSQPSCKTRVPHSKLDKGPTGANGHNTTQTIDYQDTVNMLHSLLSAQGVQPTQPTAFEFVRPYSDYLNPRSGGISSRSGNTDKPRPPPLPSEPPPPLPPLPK", "assay": "ADP-Glo kinase assay", "assay_type": "biochemical", "procedure": "ADP-Glo assay kit was purchased from Promega and the CDK9/CycT1 protein and PDKtide substrate were purchased from SignalChem. […] The reaction was started by pre-incubating 4 μL of protein (20 nM), 2 μL of substrate (100 μM), and 2 μL of serial diluted drug in 1× assay buffer (50 mM HEPES, 3 mM MgCl2, 3 mM MnCl2, and 1 mM DTT) for 30 minutes. After pre-incubating, 4 μL of ATP (1 μM) was added to each well and incubated for an additional 90 minutes. The ADP-Glo Reagent (10 μL) and Kinase Detection Reagent (20 μL) were added to each well and incubated as recommended by Promega. The reaction was quantified by measuring luminescence and the IC50 was calculated using GraphPad Prism software."}, "CDK9 + Cyclin T1": {"biological_target": "CDK9 + Cyclin T1 (Homo sapiens, UniProt P50750)", "sequence (P50750 whole entry)": "as the sequence (P50750 whole entry) above", "sequence (O60563 whole entry partner)": "as the sequence (O60563 whole entry partner) above", "assay": "cell-based"}},
  "note": "Read-outs that look alike come from different tables or passages of the source.",
  "data": [
    {"compound": "CC(C)c1c2cc(-c3ccnc(N[C@H]4CC[C@H](N)C4)n3)ccc2nn1C", "note": "[Compound I-2, (1S,3S)-[3-[4-(3-isopropyl-2-methylindazol-5-yl)pyrimidin-2-yl]aminocyclopentan-1-yl]-1,3-diamine]", "values": [
      {"measurement": "IC50", "setting": "CDK2/cyclinA [1]", "result": 17.6, "unit": "nM"},
      {"measurement": "IC50", "setting": "CDK3/cyclinE [2]", "result": 115, "unit": "nM"},
      {"measurement": "tumor growth inhibition throughout the course of the study", "setting": "[3]; LASCPC-01, 50 mg/kg group", "result": "> 80", "unit": "%"},
      {"measurement": "maximal tumor growth inhibition", "setting": "[3]; LASCPC-01, 50 mg/kg group, early in the study", "result": "~100", "unit": "%"},
      {"measurement": "maximal growth inhibition", "setting": "[3]; LASCPC-01, 80 mg/kg group, day 5", "result": 117, "unit": "%"},
      {"measurement": "tumor growth", "setting": "[3]; LASCPC-01, 30, 50, 65, 80 mg/kg", "result": "inhibit tumor growth in a dose dependent manner"},
      {"measurement": "decrease in tumor weight as compared to vehicle control group", "setting": "[4]; C4-2, 50-30 mg/kg p.o., day 21", "result": 48.72, "unit": "%"},
      {"measurement": "tumor volume as compared to vehicle control group", "setting": "[4]; C4-2, 50-30 mg/kg p.o., days 18 to 21", "result": "significant decrease tumor volume"},
      {"measurement": "tumor growth inhibition from vehicle control group", "setting": "[4]; C4-2, 50-30 mg/kg p.o., terminal day 21", "result": 43.25, "unit": "%"},
      {"measurement": "body weight as compared to vehicle control group", "setting": "[4]; C4-2 study, 50-30 mg/kg p.o., starting at day 4", "result": "significant body weight loss"},
      {"measurement": "severe body weight loss", "setting": "[4]; C4-2 study, mouse that died", "result": "~15", "unit": "%"},
      {"measurement": "IC50", "setting": "[5]", "result": 6700, "unit": "nM"},
      {"measurement": "cell death", "setting": "C4-2 [6]", "result": 84, "unit": "%"},
      {"measurement": "activity in scanMAX panel", "setting": "CDK9; CDK9, 1 μM", "result": 2.7, "unit": "%"},
      {"measurement": "Kd", "setting": "CDK9; CDK9/cyclinT", "result": 4.2, "unit": "nM"},
      {"measurement": "Kd", "setting": "PCTK1; PCTK1", "result": 8.2, "unit": "nM"},
      {"measurement": "remaining binding at 1 µM", "setting": "PCTK1; PCTK1, 1 μM, read-out: % of control activity", "result": "0 to 1", "unit": "%"},
      {"measurement": "IC50", "setting": "C4-2 [7]; C4-2, 72 hours", "result": 28.2, "unit": "nM"},
      {"measurement": "IC50", "setting": "C4-2 [7]; Homo sapiens, C4-2, 72 h", "result": 28, "unit": "nM"},
      {"measurement": "half-life", "setting": "[8]; IV 1 mg/kg", "result": 4.26, "unit": "h"},
      {"measurement": "half-life", "setting": "[8]; oral 3 mg/kg", "result": 5.81, "unit": "h"},
      {"measurement": "AUC", "setting": "[8]; IV 1 mg/kg", "result": "529 ± 200", "unit": "ng·h/mL"},
      {"measurement": "AUC(0-inf)", "setting": "[8]; IV 1 mg/kg", "result": "566 ± 191", "unit": "ng·h/mL"},
      {"measurement": "MRT", "setting": "[8]; IV 1 mg/kg", "result": "3.82 ± 1.25", "unit": "h"},
      {"measurement": "clearance", "setting": "[8]; IV 1 mg/kg", "result": "31.8 ± 10.7", "unit": "mL/min/kg"},
      {"measurement": "C0", "setting": "[8]; IV 1 mg/kg, extrapolated concentration at time zero", "result": "312 ± 98.3", "unit": "ng/mL"},
      {"measurement": "Tmax", "setting": "[8]; IV 1 mg/kg", "result": 0.08, "unit": "h"},
      {"measurement": "AUC", "setting": "[8]; oral 3 mg/kg", "result": "1300 ± 233", "unit": "ng·h/mL"},
      {"measurement": "AUC(0-inf)", "setting": "[8]; oral 3 mg/kg", "result": "1340 ± 242", "unit": "ng·h/mL"},
      {"measurement": "Cmax", "setting": "[8]; oral 3 mg/kg", "result": "373 ± 238", "unit": "ng/mL"},
      {"measurement": "MRT", "setting": "[8]; oral 3 mg/kg", "result": "4.92 ± 0.97", "unit": "h"},
      {"measurement": "bioavailability", "setting": "[8]; oral 3 mg/kg vs IV 1 mg/kg, from nominal doses and AUCinf, read-out: % F (oral bioavailability)", "result": "83 ± 22", "unit": "%"},
      {"measurement": "Tmax", "setting": "[8]; oral 3 mg/kg", "result": 1, "unit": "h"},
      {"measurement": "Vd", "setting": "[8]; IV 1 mg/kg, read-out: Vd", "result": "11.3 ± 2.93", "unit": "L/kg"},
      {"measurement": "Vd", "setting": "[8]; IV 1 mg/kg, read-out: Vss", "result": "9.35 ± 2.74", "unit": "L/kg"},
      {"measurement": "apoptosis by Annexin V/7-AAD staining", "setting": "22Rv1; 22Rv1", "result": "increased apoptosis in a dose dependent manner"},
      {"measurement": "cell death", "setting": "22Rv1; 22Rv1, treated for 72 hours", "result": 71, "unit": "%"},
      {"measurement": "Kd", "setting": "TAOK1; TAOK1", "result": 19, "unit": "nM"},
      {"measurement": "remaining binding at 1 µM", "setting": "TAOK1; TAOK1, 1 μM, read-out: % of control activity", "result": "0 to 1", "unit": "%"},
      {"measurement": "Kd", "setting": "CDK4/cyclinD", "result": 22, "unit": "nM"},
      {"measurement": "Kd", "setting": "CDK2/cyclinA [9]", "result": 30, "unit": "nM"},
      {"measurement": "Kd", "setting": "CDK3/cyclinE [10]", "result": 31, "unit": "nM"},
      {"measurement": "Kd", "setting": "ERK8; ERK8", "result": 5.5, "unit": "nM"},
      {"measurement": "remaining binding at 1 µM", "setting": "ERK8; ERK8, 1 μM, read-out: % of control activity", "result": "0 to 1", "unit": "%"},
      {"measurement": "IC50", "setting": "C4-2B; 72 h", "result": 31, "unit": "nM"},
      {"measurement": "IC50", "setting": "C4-2B; 72 hours", "result": 31.9, "unit": "nM"},
      {"measurement": "IC50", "setting": "CDK9/CycT1", "result": "< 50", "unit": "nM"},
      {"measurement": "IC50", "setting": "CDK9 + Cyclin T1", "result": 15.6, "unit": "nM"}
    ]}
  ]
}
